Results from article PMC6363759, “Decreased complexity of glucose dynamics in diabetes in rhesus monkeys” (Scientific Reports, 2019).

What was measured:
[1] = system: diabetic rhesus monkeys; assay: Glucose lowering by liraglutide detected by continuous glucose monitoring (CGM); type: in vivo; settings: for Mean glucose, With liraglutide: CGM over treatment period (16 to 28 days)
Procedure: Vehicle used was 1 mM Sodium Phosphate (pH = 8) and 5% Mannitol. […] Blood samples were obtained at 0.08, 0.25, 0.50, 1.00, 2.00, 4.00, 6.00, 7.00, and 24.00 hours post-dose. […] Compound was given daily subcutaneously at 15 µg/kg in the morning each day (~8–9 am). Lira dosing started on Day 39 of the CGM period and continued for 28 days.
Surgery procedure: Rhesus monkeys underwent surgery for placement of the DSI HD-XG glucose sensor into the right carotid artery. Animals were initially sedated with 10 mg/kg ketamine IM, intubated and anesthesia was maintained through isoflurane inhalation. All monkeys received 0.01 mg/kg Buprenorphine IM, 4.4 mg/kg carprofen SC and 20 mg/kg ceftiofur SC preoperatively. A 3–4 centimeter skin incision was made on the right, mid-lateral neck over the carotid artery where the pulse was palpated. A 1–2 centimeter segment of the right carotid artery was isolated and a tight ligature was placed distally towards the head around the exposed section of vessel. A second ligature was pre-placed, but not tightened, proximally towards the chest around the exposed section of vessel to prevent excessive bleeding when the vessel was cut. A small incision was made in the artery between these two ligatures. The sensor was inserted into the lumen of the vessel and advanced towards the heart approximately 8–9 centimeters. The pre-placed ligature was tightened to prevent bleeding around the sensor. A third ligature was secured around the sensor between the previously placed ligatures and further secured around the vessel to prevent the sensor from migrating. The telemetry body was secured to the underlying musculature in the right lateral neck near the sensor entry into the artery. Monkeys received 2 mg/kg bupivacaine locally at the skin incision. All incisions were then closed routinely. The animals were removed from the isoflurane anesthesia to allow for recovery and were monitored until they were sternal and stable. Animals received 4.4 mg/kg carprofen PO or IM once the day following surgery and were observed daily for the next 10 days to assure a normal recovery. A reference electrode and telemetry body was placed in the subcutaneous tissue near the catheter entry point as recommended by DSI.
The implanted sensor transmits its signal to a repeater located on the same animal on the collar. That repeater then immediately retransmits the HD-XG data on a different frequency to a repeater receiver up to 8 meters away. […] Glucose sensor values were reported once per second.

[2] = system: diabetic rhesus monkeys; assay: Multiscale entropy (MSE) analysis of glucose dynamics before and during liraglutide treatment; type: in vivo; settings: 15 µg/kg sc daily
Procedure: Details about the definition and calculation of MSE are given in the Supplementary Materials and Methods. MSE-AUC10s-30m is the area under an MSE curve between scale factors of 10 seconds and 30 minutes, and was used as a single-number summary of the curve.
Five diabetic animals were treated with liraglutide for four weeks, beginning during the sixth week of monitoring. […] For each animal the period of the same length immediately preceding the start of liraglutide was used as the comparator (‘pre-liraglutide’) period.
Supplementary Materials and Methods
Multiscale entropy analysis, introduced by Costa et al1, is built upon a quantity called sample entropy2, which we describe first. The sample entropy of a regularly spaced time series of length N is defined using two parameters: a subsequence length, m, and a similarity threshold, r. Consider any two subsequences of length m of the time series. […]
start at the same position.) The subsequences are said to match if the i-th element of one subsequence differs from the i-th element of the other by no more than r, for all ݅=1,…,݉. Let B denote the number of matching pairs of subsequences when we consider all possible pairs of length- m subsequences from the first […] observations of the series. Next, repeat the process of counting matches, but use subsequences of length m+1instead of m, and consider all possible such subsequences taken from the full series of N observations. Let A denote the number of matching pairs among them.
Then the sample entropy is the negative natural logarithm of the ratio A/B. See Richman and Moorman 2 for details and explicit formulas. […]
Multiscale entropy calculates this sample entropy after applying various amounts of averaging to the original time series. […] The result is a new time series of averages, for which sample entropy is calculated. […]
Application of MSE analysis requires choosing values for the parameters m and r, and the set of scale factors to use. […] The smallest possible scale fact or is set by the time resolution of the series being analyzed, in our case 1 second. […]

[3] = in the clinic, cited from earlier work
Description: The sixth diabetic animal, 161281, was not treated because it was already receiving insulin.

CCCCCCCCCCCCCCCC(=O)N[C@@H](CCC(=O)NCCCC[C@H](NC(=O)[C@H](C)NC(=O)[C@H](C)NC(=O)[C@H](CCC(N)=O)NC(=O)CNC(=O)[C@H](CCC(=O)O)NC(=O)[C@H](CC(C)C)NC(=O)[C@H](Cc1ccc(O)cc1)NC(=O)[C@H](CO)NC(=O)[C@H](CO)NC(=O)[C@@H](NC(=O)[C@H](CC(=O)O)NC(=O)[C@H](CO)NC(=O)[C@@H](NC(=O)[C@H](Cc1ccccc1)NC(=O)[C@@H](NC(=O)CNC(=O)[C@H](CCC(=O)O)NC(=O)[C@H](C)NC(=O)[C@@H](N)Cc1cnc[nH]1)[C@@H](C)O)[C@@H](C)O)C(C)C)C(=O)N[C@@H](CCC(=O)O)C(=O)N[C@@H](Cc1ccccc1)C(=O)N[C@H](C(=O)N[C@@H](C)C(=O)N[C@@H](Cc1c[nH]c2ccccc12)C(=O)N[C@@H](CC(C)C)C(=O)N[C@H](C(=O)N[C@@H](CCCNC(=N)N)C(=O)NCC(=O)N[C@@H](CCCNC(=N)N)C(=O)NCC(=O)O)C(C)C)[C@@H](C)CC)C(=O)O [liraglutide]
afternoon peak in glucose ([1]; all five treated diabetic rhesus, mean glucose by time of day, before and during treatment): reduced | Mean glucose, With liraglutide ([1]; diabetic rhesus animal 161282, 15 µg/kg sc daily): 208.2 mg/dL | Mean glucose, With liraglutide ([1]; diabetic rhesus animal 161283, 15 µg/kg sc daily): 109.6 mg/dL | Mean glucose, With liraglutide ([1]; diabetic rhesus animal 161284, 15 µg/kg sc daily): 183.1 mg/dL | Mean glucose, With liraglutide ([1]; diabetic rhesus animal 161286, 15 µg/kg sc daily): 236.6 mg/dL | Mean glucose, With liraglutide ([1]; diabetic rhesus animal 161288, 15 µg/kg sc daily): 140.9 mg/dL | coefficient of variation of glucose (standard deviation as a proportion of the mean), treatment vs pre-treatment ([1]; five diabetic rhesus, 15 µg/kg sc daily): no consistent change | decline of mean glucose ([1]; range over all five treated diabetic rhesus, 15 µg/kg sc daily, treatment vs pre-treatment period): 5–42% | MSE curve of glucose, treatment vs pre-treatment period ([2]; animals 161286 and 161288): higher | complexity of glucose dynamics in diabetic animals ([2]; five diabetic rhesus, 2–4 weeks of treatment): did not consistently change complexity | MSE of glucose, treatment vs pre-treatment period ([2]; three of five treated diabetic animals, 16 to 28 days): essentially no difference | time of maximum concentrations post dosing ([3]; subcutaneous administration): 8 to 12 h | mean peak (Cmax) exposure ([3]; subcutaneous single dose of 0.6 mg): 35 ng/mL
